The data set in a line: Plasma stability test. It is filed as in vitro ADME. The conditions noted are these: human fresh plasma; read-out: ½t (plasma half-life). Here is the method: In the tables mentioned below, data indicated by “½t” means data of plasma half-life (minutes) is determined by plasma stability test that mentioned below.
Determination of Plasma half life was carried out according to the following procedure using the fresh plasma.
1. 0.025 mg/mL spiking solution A: add 10 μL of 0.5 mg/mL stock solution to 190 μL of DMSO. 2. Add 90 μL of plasma into the wells designated for all the time points (0, 5, 10, 30, 60, 90, 120, 240 min). 3. Add 10 μL of pre-warmed spiking solution A into the wells designated for all the time points (0, 5, 10, 30, 60, 90, 120, 240 min). Immediately, add 400 μL of ACN containing IS into the wells designated for 0 min, then start timing. 4. At 5, 10, 30, 60, 90, 120, 240 min, add 400 μL of ACN containing IS into the wells, respectively. 5. Protein is precipitated by centrifugation (4000 rpm, 15 min). 6. Transfer 50 μL of supernatant into 50 μL of ultra-pure water (Millipore) in a 96-well sample plate for LC-MS/MS analysis.

On to `CC(=O)Oc1ccc(C[C@H]2C(=O)N(Cc3cccc4cccnc34)[C@@H](C)C3N2C(=O)CN(C)N3C(=O)NCc2ccccc2)cc1` (stereo partly drawn) [Example I-1, 4-(((6S,9S)-1-(benzylcarbamoyl)-2,9-dimethyl-4,7-dioxo-8-(quinolin-8-ylmethyl)octahydro-1H-pyrazino[2,1-c][1,2,4]triazin-6-yl)methyl)phenyl acetate], for which the half-life at 2.5 µg/mL turned out to be 0.733 h.

`CCCCC(=O)Oc1ccc(C[C@H]2C(=O)N(Cc3cccc4cccnc34)[C@@H](C)C3N2C(=O)CN(C)N3C(=O)NCc2ccccc2)cc1` (stereo partly drawn) [Example I-2, 4-(((6S,9S)-1-(benzylcarbamoyl)-2,9-dimethyl-4,7-dioxo-8-(quinolin-8-ylmethyl)octahydro-1H-pyrazino[2,1-c][1,2,4]triazin-6-yl)methyl)phenyl pentanoate]: the half-life at 2.5 µg/mL was determined as 2.75 h.

With `CCCCCCCCC(=O)Oc1ccc(C[C@H]2C(=O)N(Cc3cccc4cccnc34)[C@@H](C)C3N2C(=O)CN(C)N3C(=O)NCc2ccccc2)cc1` (stereo partly drawn) [Example I-3, 4-(((6S,9S)-1-(benzylcarbamoyl)-2,9-dimethyl-4,7-dioxo-8-(quinolin-8-ylmethyl)octahydro-1H-pyrazino[2,1-c][1,2,4]triazin-6-yl)methyl)phenyl nonanoate], the half-life at 2.5 µg/mL was 2.77 h.

The half-life is how long it takes for the measured level to halve.
